Consider eight molecules from patent publication US20150283240A1, “STABILIZED COMPOSITIONS COMPRISING A […] ACTIVE AGENT AND AN OXIDIZING PRESERVATIVE” (Allergan, Inc., priority 2014, published 2015).

SMILES strings stand for the structures.

The conditions of data set [1]: for Stabilization of chlorine dioxide (in words): excipients of Table 1 in brimonidine composition; for Stabilized Chlorine Dioxide Concentration, 0 Days / Stabilized Chlorine Dioxide Concentration, 7 Days / Stabilized Chlorine Dioxide Concentration, 14 Days: ingredient added at stated ppm to proprietary brimonidine composition.
Procedure: Each of the excipients was added, in the amounts shown, to a proprietary composition comprising brimonidine as a therapeutically active agent.
A short description of data set [2]: Effect of citrate on bimatoprost and Purite stability in the composition of Table 4 at 50° C. Type of data set: physicochemical. To be noted: compositions D (citric acid 0.014%) vs E, 50° C., 3, 6 and 10 weeks, FIGS. 1 and 2. The method, then: Compositions D and E were prepared according to Table 4 by a procedure similar to that described in Example 2. […] The samples were stored at 50° C. and the concentrations of bimatoprost (FIG. 1) and Purite® (FIG. 2) were determined at 3, 6 and 10 weeks.

The format of data set [3] is physicochemical. The method, then:
A composition, prepared according to Table 5, was entirely manufactured in a single batch vessel and was prepared as follows. The ingredients are added into purified water with mixing in the following order: sodium phosphate dibasic heptahydrate, citric acid monohydrate, sodium chloride, bimatoprost, and Purite®. Each ingredient was allowed to dissolve completely before the next ingredient was added. The pH was then measured and adjusted to 7.3, and purified water was added to bring the composition to final volume.

In the case of `O=C(O)CN(CCN(CC(=O)O)CC(=O)O)CC(=O)O` [EDTA], in data set [1], the “Stabilization of chlorine dioxide (in words)” value (“Stabilization” below) is “do not stabilize”; the “Stabilized Chlorine Dioxide Concentration, 0 Days” value was 44 ppm; the “Stabilized Chlorine Dioxide Concentration, 7 Days” value was 2 ppm; the “Stabilized Chlorine Dioxide Concentration, 14 Days” value is given as 0 ppm.
Turning to `NCCN` [Ethylene diamine], the “Stabilization” value in data set [1] is on record as “do not stabilize”.
Take `O=C([O-])/C(O)=C(\O)C(=O)[O-].[Na+].[Na+]` [Sodium Dihydroxyfurmarate]: in data set [1], the “Stabilized Chlorine Dioxide Concentration, 0 Days” value is reported as 37 ppm; the “Stabilized Chlorine Dioxide Concentration, 7 Days” value turned out to be 13 ppm; the “Stabilized Chlorine Dioxide Concentration, 14 Days” value turned out to be 0 ppm.
For `O=C[O-].[Na+]` [Sodium Formate] the same measures were 42 ppm, 40 ppm and 36 ppm.
For `CC(O)C(=O)[O-].[Na+]` (stereo not drawn) [Sodium Lactate], in that order: 45 ppm, 40 ppm and 37 ppm.
Regarding `O=C([O-])C(=O)[O-].[Na+].[Na+]` [Sodium Oxalate], in data set [1], the “Stabilization” value is “ineffective”; the “Stabilized Chlorine Dioxide Concentration, 0 Days” value came out at 39 ppm; the “Stabilized Chlorine Dioxide Concentration, 7 Days” value came out at 38 ppm; the “Stabilized Chlorine Dioxide Concentration, 14 Days” value was determined as 35 ppm.
`CC(=O)C(=O)[O-].[Na+]` [Sodium Pyruvate]: the “Stabilization” value in data set [1] is on record as “ineffective”.
With `O=C(O)CC(O)(CC(=O)O)C(=O)O` [citrate, citric acid], in data set [2], the “Effect of citrate on bimatoprost and Purite stability (in words)” value is “stabilizes both bimatoprost and Purite®”. In addition, in data set [3], the “Storage stability for bimatoprost and Purite (in words)” value is on record as “excellent storage stability”.
